Measured values reported in publication PMC6787163, “Systematic Dual Targeting of Dendritic Cell C-Type Lectin Receptor DC-SIGN and TLR7 Using a Trifunctional Mannosylated Antigen” (Frontiers in Chemistry, 2019).

What was measured:
[1] = target: T1, DC-SIGN ECD (Homo sapiens, UniProt Q9NNX6); assay: SPR competition (inhibition) assay, DC-SIGN ECD on BSA-mannotriose surface; type: binding; settings: DC-SIGN ECD 20 μM
T1 construct: The ECD of DC-SIGN (residues 66–404) was overexpressed and purified as previously described; made in house
T1 sequence (Q9NNX6 66-404): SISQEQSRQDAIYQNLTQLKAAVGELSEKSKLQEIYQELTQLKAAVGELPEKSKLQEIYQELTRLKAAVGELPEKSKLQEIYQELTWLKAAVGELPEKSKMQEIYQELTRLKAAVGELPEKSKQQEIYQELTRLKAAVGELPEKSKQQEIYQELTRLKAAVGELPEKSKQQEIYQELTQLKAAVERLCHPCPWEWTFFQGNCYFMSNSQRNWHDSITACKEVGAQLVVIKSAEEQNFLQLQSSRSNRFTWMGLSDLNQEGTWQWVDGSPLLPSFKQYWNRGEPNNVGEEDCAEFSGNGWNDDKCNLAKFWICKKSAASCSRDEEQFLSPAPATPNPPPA
Experimental: (§1) The affinity of the clusters for the extracellular domain (ECD) of the DC-SIGN receptor (DC-SIGN ECD) was estimated via surface plasmon resonance (SPR) assays (Tabarani et al., [2009]). The apparent Kd was calculated in direct interaction mode using a surface functionalized in an oriented manner with DC-SIGN ECD. In this assay, tetrameric DC-SIGN ECD is attached to the surface of the sensor chip via the N-terminus of its neck oligomerization domain, thus presenting its four carbohydrate recognition domains toward the solvent, realistically mimicking the presentation of the receptor on cell surface (Porkolab et al., [2019]). For some of the low affinity ligands, in the mM range, it was not possible to determine their affinity with this assay, and therefore a competition experiment was performed providing IC50 values (Timpano et al., [2008]) (Figure 3A). […] When comparing equivalent clusters, the α1,2-di-mannoside (B series) bound with the highest affinity (Figure 3A). […] A potential explanation for this effect could be that the spacing of clusters is more important for the larger tri-mannosides.
The ECD of DC-SIGN (residues 66–404) was overexpressed and purified as previously described (Tabarani et al., [2009]). The DC-SIGN S-ECD construct used for direct interaction experiment (see below) has been overexpressed and purified as described elsewhere (Porkolab et al., [2019]). The SPR competition experiments were performed on a BIAcore T200 using a CM3 series S sensor chip. Flow cells were activated as previously described (Halary et al., [2002]). Flow cell 1 was functionalized with BSA, blocked with ethanolamine and subsequently used as a control surface. Flow cells 2 and 3 were treated with BSA-Man α1-3[Manα1-6]Man (Dextra) (60 μg/mL) in 10 mM NaOAc pH 4 and blocked with ethanolamine. The final densities on flow cells 2 and 3 were about 2,100 RU. The affinities of the various compounds for DC-SIGN ECD were evaluated via an established inhibition assay (Andreini et al., [2011]) in which DCSIGN ECD was injected at 20 μM alone or in the presence of increasing concentration of inhibitors. Injections were performed at 5 μL/min using 25 mM Tris-HCl pH 8, 150 mM NaCl, 4 mM CaCl2, 0.05% P20 surfactant as running buffer. The surface was regenerated by the injection of 50 mM EDTA. The data was analyzed in BIAcore BIAevaluation software using four parameter equation.

[2] = target: T2, DC-SIGN S-ECD (Homo sapiens, UniProt Q9NNX6); assay: SPR direct interaction assay on oriented DC-SIGN S-ECD surface; type: binding; settings: SPR direct interaction, oriented tetrameric DC-SIGN ECD surface, apparent Kd; read-out: Kdapp
T2 construct: The ECD of DC-SIGN (residues 66–404) was overexpressed and purified as previously described; made in house
T2 sequence (Q9NNX6 66-404): T1 sequence (Q9NNX6 66-404)
Experimental: as §1
The direct interaction experiments were executed on a T200 Biacore with a CM3 series S sensor chip. Contrary to the competition assay described above, in this test, DC-SIGN ECD used harbors a StreptagII in its N-terminus (DC-SIGN S-ECD) to allow its capture and functionalization onto the surface in an oriented manner. Flow cells were functionalized as previously described (Porkolab et al., [2019]). Briefly, after EDC/NHS activation, flow cells were functionalized with streptactin protein in a first step. Flow cell 1 was used as control, while other flow cells were, in a second round of activation, functionalized with 100 μg/mL of a DC-SIGN S-ECD up to a final density ranging between 2,500 and 3,000 RU, via tag specific capture and linkage by amine coupling chemistry simultaneously. The compounds were injected in running buffer of 25 mM Tris pH 8, 150 mM NaCl, 4 mM CaCl2, 0.05% Tween 20 onto the surface at increasing concentrations with a flow rate of 30 μL/min. The ligand titration led to the determination of an apparent Kd value. The data was analyzed in BIAcore BIAevaluation software for direct interaction 1:1 calculation assuming that the Kd will reflect the affinity of the ligands (glycoclusters) for the DC-SIGN oriented surface used as a whole.

[3] = tested on: moDCs; assay: Internalization of biotinylated hexavalent clusters by moDCs (flow cytometry); type: cell-based, human
Experimental: For the internalization, the moDCs were incubated with clusters b6, c6, d6, and e6 for 1 h at 4°C, where after unbound ligands were washed away with ice-cold medium. Warm medium was added to the moDCs, and samples were taken at the indicated time points and put on ice. Upon staining the moDCs with fluorophore-conjugated streptavidin, we could measure the signal loss of the membrane via flow cytometry. To exclude ligand-receptor dissociation before internalization, the moDCs were fixed under gentle conditions, hereby inhibiting receptor-mediated endocytosis. On fixed moDCs the clusters remained at the surface, as no signal loss could be detected (Supplementary Figure 1D). […] The di-mannoside clusters (b6, c6, and d6) were internalized relatively fast, with a 50% uptake within 5 min (Figure 5B). The tri-mannoside cluster e6 however remained longer at the membrane surface and only a 25% uptake was seen after 30 min. Similar results were seen using a pH-sensitive fluorophore. In acidic environments, such as the endosomes and lysosomes, the fluorescence of this dye increases. Pre-complexed clusters mirrored the accelerated uptake of the di-mannoside clusters over the e6 cluster (Supplementary Figure 1E). Although the DC-SIGN mediated uptake mechanism is known (Cambi et al., [2009]), the initiation trigger for endocytosis upon DC-SIGN-ligand binding remains unclear. Recognition of the di-mannoside clusters could induce signaling leading to accelerated uptake, whereas the tri-mannoside cluster could trigger a different signaling pathway. Nonetheless, the clusters harboring the smaller mannosides are preferred. Although the binding affinity of the clusters ranged from 0.9 to 6.6 μM, the di-mannosides induce more rapid DC-SIGN internalization over the tri-mannosides, and can thus increase intracellular peptide concentrations more efficiently for further antigen processing and presentation.
Immature day 5 moDCs were harvested and washed with cold HBSS (Thermo Fischer), after which half of the moDCs were gently fixed for 20 min at RT with 1% PFA in PBS. Afterwards, 20 μM of the different biotinylated mannose-clusters in cold HBSS were added. The moDCs were incubated for 1 h on ice, and washed in cold HBSS. Subsequently, warm HBSS was added to the cells, and cells were incubated at 37°C in a shaking heating block. At the indicated time points, a sample of the cells was taken and put on ice. After the last time point, the cells were stained with Streptavidin-Alexa647 (Thermo Fisher), measured using flow cytometry (CyAn™ ADP with Summit™ Software), and further analyzed using FlowJo v10. The same procedure was used for internalization with pHrodo^TM Red Avidin (Thermo Fischer). The different biotinylated mannose-clusters were however incubated with pHrodo-Avidin (ratio 2:1) for 15 min at 37°C, prior to moDC exposure. The fluorescence upon internalization was measured using flow cytometry (BD LSRFortessa™ X-20 with FACSDiva Software), and further analyzed using FlowJo v10.

Row | IC50 [1] | SMILES | other results
1 | 6960 ± 3040 µM | CC(=O)N[C@@H](CCCCn1cc(CO[C@H]2O[C@H](CO[C@H]3O[C@H](CO)[C@@H](O)[C@H](O)[C@@H]3O)[C@@H](O)[C@H](O)[C@@H]2O)nn1)C(=O)NCC(=O)N[C@@H](CCCCN)C(N)=O [D1] | –
2 | 410.9 ± 0.3 µM | CC(=O)N[C@@H](CCCCn1cc(CO[C@H]2O[C@H](CO[C@H]3O[C@H](CO)[C@@H](O)[C@H](O)[C@@H]3O)[C@@H](O)[C@H](O)[C@@H]2O)nn1)C(=O)NCC(=O)N[C@@H](CCCCn1cc(CO[C@H]2O[C@H](CO[C@H]3O[C@H](CO)[C@@H](O)[C@H](O)[C@@H]3O)[C@@H](O)[C@H](O)[C@@H]2O)nn1)C(=O)NCC(=O)N[C@@H](CCCCN)C(N)=O [D2] | –
3 | 1520 ± 250 µM | CC(=O)N[C@@H](CCCCn1cc(CO[C@H]2O[C@H](CO[C@H]3O[C@H](CO)[C@@H](O)[C@H](O)[C@@H]3O)[C@@H](O)[C@H](O[C@H]3O[C@H](CO)[C@@H](O)[C@H](O)[C@@H]3O)[C@@H]2O)nn1)C(=O)NCC(=O)N[C@@H](CCCCN)C(N)=O [E1] | –

Continued, compound first:

Row | SMILES | IC50 [1] | other results
4 | CC(=O)N[C@@H](CCCCn1cc(CO[C@H]2O[C@H](CO)[C@@H](O)[C@H](O)[C@@H]2O)nn1)C(=O)NCC(=O)N[C@@H](CCCCn1cc(CO[C@H]2O[C@H](CO)[C@@H](O)[C@H](O)[C@@H]2O)nn1)C(=O)NCC(=O)N[C@@H](CCCCN)C(N)=O [A2] | 2600 ± 95 µM | –
5 | CC(=O)N[C@@H](CCCCn1cc(CO[C@H]2O[C@H](CO)[C@@H](O)[C@H](O)[C@@H]2O)nn1)C(=O)NCC(=O)N[C@@H](CCCCn1cc(CO[C@H]2O[C@H](CO)[C@@H](O)[C@H](O)[C@@H]2O)nn1)C(=O)NCC(=O)N[C@@H](CCCCn1cc(CO[C@H]2O[C@H](CO)[C@@H](O)[C@H](O)[C@@H]2O)nn1)C(=O)NCC(=O)N[C@@H](CCCCN)C(N)=O [A3] | 736.7 ± 3.4 µM | –
6 | CC(=O)N[C@@H](CCCCn1cc(CO[C@H]2O[C@H](CO)[C@@H](O)[C@H](O)[C@@H]2O[C@H]2O[C@H](CO)[C@@H](O)[C@H](O)[C@@H]2O)nn1)C(=O)NCC(=O)N[C@@H](CCCCN)C(N)=O [B1] | 2340 ± 109 µM | –
7 | CC(=O)N[C@@H](CCCCn1cc(CO[C@H]2O[C@H](CO)[C@@H](O)[C@H](O)[C@@H]2O[C@H]2O[C@H](CO)[C@@H](O)[C@H](O)[C@@H]2O)nn1)C(=O)NCC(=O)N[C@@H](CCCCn1cc(CO[C@H]2O[C@H](CO)[C@@H](O)[C@H](O)[C@@H]2O[C@H]2O[C@H](CO)[C@@H](O)[C@H](O)[C@@H]2O)nn1)C(=O)NCC(=O)N[C@@H](CCCCN)C(N)=O [B2] | 189 ± 3.45 µM | –
8 | CC(=O)N[C@@H](CCCCn1cc(CO[C@H]2O[C@H](CO)[C@@H](O)[C@H](O[C@H]3O[C@H](CO)[C@@H](O)[C@H](O)[C@@H]3O)[C@@H]2O)nn1)C(=O)NCC(=O)N[C@@H](CCCCn1cc(CO[C@H]2O[C@H](CO)[C@@H](O)[C@H](O[C@H]3O[C@H](CO)[C@@H](O)[C@H](O)[C@@H]3O)[C@@H]2O)nn1)C(=O)NCC(=O)N[C@@H](CCCCN)C(N)=O [C2] | 567.4 ± 1.15 µM | –
9 | CC(=O)N[C@@H](CCCCn1cc(CO[C@H]2O[C@H](CO)[C@@H](O)[C@H](O[C@H]3O[C@H](CO)[C@@H](O)[C@H](O)[C@@H]3O)[C@@H]2O)nn1)C(=O)NCC(=O)N[C@@H](CCCCn1cc(CO[C@H]2O[C@H](CO)[C@@H](O)[C@H](O[C@H]3O[C@H](CO)[C@@H](O)[C@H](O)[C@@H]3O)[C@@H]2O)nn1)C(=O)NCC(=O)N[C@@H](CCCCn1cc(CO[C@H]2O[C@H](CO)[C@@H](O)[C@H](O[C@H]3O[C@H](CO)[C@@H](O)[C@H](O)[C@@H]3O)[C@@H]2O)nn1)C(=O)NCC(=O)N[C@@H](CCCCN)C(N)=O [C3] | 171.9 ± 1.45 µM | –
10 | CC(=O)N[C@@H](CCCCn1cc(CO[C@H]2O[C@H](CO)[C@@H](O)[C@H](O[C@H]3O[C@H](CO)[C@@H](O)[C@H](O)[C@@H]3O)[C@@H]2O)nn1)C(=O)N[C@@H](CCCCn1cc(CO[C@H]2O[C@H](CO)[C@@H](O)[C@H](O[C@H]3O[C@H](CO)[C@@H](O)[C@H](O)[C@@H]3O)[C@@H]2O)nn1)C(=O)N[C@@H](CCCCn1cc(CO[C@H]2O[C@H](CO)[C@@H](O)[C@H](O[C@H]3O[C@H](CO)[C@@H](O)[C@H](O)[C@@H]3O)[C@@H]2O)nn1)C(=O)N[C@@H](CCCCn1cc(CO[C@H]2O[C@H](CO)[C@@H](O)[C@H](O[C@H]3O[C@H](CO)[C@@H](O)[C@H](O)[C@@H]3O)[C@@H]2O)nn1)C(=O)N[C@@H](CCCCn1cc(CO[C@H]2O[C@H](CO)[C@@H](O)[C@H](O[C@H]3O[C@H](CO)[C@@H](O)[C@H](O)[C@@H]3O)[C@@H]2O)nn1)C(=O)N[C@@H](CCCCn1cc(CO[C@H]2O[C@H](CO)[C@@H](O)[C@H](O[C@H]3O[C@H](CO)[C@@H](O)[C@H](O)[C@@H]3O)[C@@H]2O)nn1)C(=O)NCC(=O)N[C@@H](CCCCN)C(N)=O [C6] | – | Kd [2]: 1.17 µM; internalization by moDCs (loss of surface streptavidin signal) ([3]; 20 μM cluster, live moDCs): rapidly internalized; internalization by moDCs (pHrodo-avidin fluorescence increase) ([3]; clusters pre-complexed with pH-sensitive dye): internalized rapidly; uptake by immature moDCs ([3]; within 5 min at 37°C, 20 μM cluster): 50%
